Test results reported in US8173606B2, “Sulfated oligosaccharide derivatives” (Progen Pharmaceuticals Limited, priority 2004, dated 2012).

Experiments:
heparanase = biological target: T1, heparanase (Homo sapiens, UniProt Q9Y251); assay: Heparanase inhibition, Microcon ultrafiltration assay; type: biochemical; settings: 3H labelled HS, pH 5.0, 22° C., 2.5 h
T1 sequence (Q9Y251 158-543 limits assumed): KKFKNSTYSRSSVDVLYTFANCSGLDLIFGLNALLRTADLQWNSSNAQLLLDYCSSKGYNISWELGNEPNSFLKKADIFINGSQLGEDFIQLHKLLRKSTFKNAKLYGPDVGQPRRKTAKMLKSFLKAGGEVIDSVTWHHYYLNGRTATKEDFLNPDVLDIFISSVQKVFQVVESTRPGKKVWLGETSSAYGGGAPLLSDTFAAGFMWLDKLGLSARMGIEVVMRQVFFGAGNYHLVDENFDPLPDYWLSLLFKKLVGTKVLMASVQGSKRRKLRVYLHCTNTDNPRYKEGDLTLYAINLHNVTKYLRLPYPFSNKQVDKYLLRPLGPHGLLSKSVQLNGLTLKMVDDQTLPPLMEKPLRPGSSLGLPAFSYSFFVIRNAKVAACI
T1 sequence (Q9Y251 36-109 limits assumed): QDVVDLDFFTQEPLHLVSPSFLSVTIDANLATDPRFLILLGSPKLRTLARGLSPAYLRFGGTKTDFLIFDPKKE
Experimental: The heparanase assays were performed using a Microcon ultrafiltration assay. The assays rely on the principle of physically separating heparan sulfate (HS) that has been digested by heparanase from native HS to determine heparanase activity. The assay uses ultrafiltration devices (Microcon YM-10) to separate the smaller heparanase-cleaved HS fragments from native HS.
A reaction was set up with a volume of 90 μL, • 40 mM acetate buffer (pH 5.0) • 0.1 mg/mL BSA • 90 ng heparanase • 2.5 μM ^3H labelled HS • various concentrations of inhibitors.
The reactions were set up with all components except the ^3H labelled HS and allowed to equilibrate for 10 min at 22° C. The assays were then initiated by adding the HS and immediately 20 μL was taken, mixed with 80 μL of 10 mM phosphate (pH 7.0) and the 100 μL transferred to a Microcon YM-10 concentrator which was then centrifuged at approximately 14000 g for 5 min. The solution that passed through the membrane (filtrate) was retained. This sample was considered the time=0 sample. The assays (now 70 μL in volume) were allowed to react at 22° C. for 2.5 h and then the filtration step was repeated for three aliquots of 20 μL from each assay.
The time=0 filtrate and the three 2.5 h filtrate samples were counted for ^3H. The difference between the time=0 and the averaged 2.5 h samples gave the amount of heparanase activity. All inhibition assays were run with a heparanase standard assay which was identical to the assay composition above except no inhibitor was present and the amount of heparanase inhibition in the other assays determined by comparison with this standard.

[1] = test system: herpes simplex virus (HSV-1) KOS321 strain; assay: Antiviral assay, HSV-1 cell-to-cell spread (plaque area); type: cell-based; settings: African green monkey kidney cells; compound in overlay medium after infection, 3 days
Description: In panel A, the results are expressed as a percentage of the number of viral plaque forming units (PFU) formed in cells infected with the compound-treated virions relative to mock-treated controls. In panel B, the results are expressed as a percentage of the average area of 20 viral plaques formed in the continuous presence of compound relative to mock-treated control cells. Monolayer cultures of African green monkey kidney cells[35] and herpes simplex virus (HSV-1) KOS321 strain[36] were used throughout. The antiviral assays on the compounds were performed as described by Nyberg et al.[13] Briefly, the effects of the compounds on the infection of cells by exogenously added virus were tested by mixing serial fivefold dilutions of compound (at 0.032-20 μM) with approximately 200 plaque forming units of the virus. Following incubation of the virus and compound for 10 min at room temperature, the mixture was added to the cells and left on the cell monolayer for 2 h at 37° C. Subsequently, the inoculum was aspirated and replaced with an overlay medium of 1% methylcellulose solution in Eagle's minimum essential medium (EMEM). The viral plaques that developed after incubation of cells for 3 days at 37° C. were stained with 1% crystal violet solution and counted. The effects of the compounds on cell-to-cell spread of HSV-1 were tested by adding serial fivefold dilutions of compound (at 0.032-20 μM) in the serum-free overlay medium to cells after their infection with HSV-1. After incubation of the compound with the cells for 3 days at 37° C., the images of 20 plaques were captured and subjected to area determination using IM500 software (Leica).

Substance | IC50 (heparanase) | IC50 [1]
Benzyl Glycoside Polysulfate [PG500] | 1.83 ± 0.483 µM | 1 µM
Octyl Glycoside Polysulfate [PG501] | 1.64 ± 0.406 µM | 0.4 µM
